Data on one molecule can be found in patent US20190000829A1, “THERAPEUTIC AGENT FOR BILIARY TRACT CANCER” (Eisai R&D Management Co., Ltd., priority 2015, published 2019).

The test system of assay [1] is human extrahepatic cholangiocarcinoma cell line (TFK-1 cell line). Briefly: Tumor growth-inhibitory effect in model subcutaneously transplanted with human extrahepatic cholangiocarcinoma cell line (TFK-1). Conditions: TFK-1 subcutaneous xenograft, nude mice; mesylate of compound A 1, 3, 10, 30, 100 mg/kg orally once a day for 14 days. Type of assay: in vivo. The method, then: An antitumor effect produced by administration of compound A was evaluated with six nude mice in each group (CAnN.Cg-Foxn1^nu/CrlCrlj, female, Charles River Laboratories Japan, Inc.). The human-derived extrahepatic cholangiocarcinoma TFK-1 cell lines (Riken BioResource Center) were suspended in RPMI1640 medium (Wako Pure Chemical Industries, Ltd., supplemented with 10% FBS) at a concentration of 2×10^8 cells/mL and were mixed well. The cell suspension was further mixed with an equal amount of Matrigel basement membrane matrix (Corning Incorporated) to prepare a cell suspension at 1×10^8 cells/mL, and aliquots of 0.1 mL were subcutaneously transplanted into the right flank of each mouse. Seven days after transplantation, the longest diameter and the short axis of the tumors were measured by an electronic digital caliper (ABS Digimatic Caliper, Mitutoyo Corporation). The mice were divided into groups so that the average of tumor volumes of each group became approximately equal. In this regard, the tumor volume was calculated according to the following formula.
(§1) Tumor volume (mm^3)=longest diameter (mm)×short axis (mm)×short axis (mm)/2 […]
(§2) The tumor volume was measured on the day when the administration was started (Day 1), Day 4, Day 8, and Day 11, and the day following the last day of administration (Day 15). […]

The subject of assay [2] is human cholangiocarcinoma cell line (OZ cell line). Description: Tumor growth-inhibitory effect in model subcutaneously transplanted with human cholangiocarcinoma cell line (OZ). Type of assay: in vivo. Conditions: OZ subcutaneous xenograft, nude mice; mesylate of compound A 1, 3, 10, 30, 100 mg/kg orally once a day for 14 days. The method, then: An antitumor effect produced by administration of compound A was evaluated with five nude mice in each group (CAnN.Cg-Foxn1^nu/CrlCrlj, female, Charles River Laboratories Japan, Inc.). The human-derived cholangiocarcinoma OZ cell lines (JCRB Cell Bank) were suspended in Williams'E (Sigma-Aldrich Corporation, supplemented with 2 mmol/L L-glutamine and 10% FBS) at a concentration of 2×10^8 cells/mL and were mixed well. The cell suspension was further mixed with an equal amount of Matrigel basement membrane matrix (Corning Incorporated) to prepare a cell suspension at 1×10^8 cells/mL, and aliquots of 0.1 mL were subcutaneously transplanted into the right flank of each mouse. Thirteen days after transplantation, the longest diameter and the short axis of the tumors were measured by an electronic digital caliper (ABS Digimatic Caliper, Mitutoyo Corporation). The mice were divided into groups so that the average of tumor volumes of each group became approximately equal. In this regard, the tumor volume was calculated according to the following formula.
as §1
The tumor volume was measured on the day when the administration was started (Day 1), Day 5, Day 8, and Day 12, and the clay following the last day of administration (Day 15). […]

Assay [3] has as its system human carcinoma of the ampulla of Vater cell line (SNU-869 cell line). Description: Tumor growth-inhibitory effect in model subcutaneously transplanted with human carcinoma of the ampulla of Vater cell line (SNU-869). Format: in vivo. Conditions: SNU-869 subcutaneous xenograft, nude mice; mesylate of compound A 1, 3, 10, 30, 100 mg/kg orally once a day for 14 days. The method, then:
An antitumor effect produced by administration of compound A was evaluated with six nude mice in each group (CAnN.Cg-Foxn1^nu/CrlCrlj, female, Charles River Laboratories Japan, Inc.). The human-derived human carcinoma of the ampulla of Vater SNU-869 cell lines (Creative Bioarray) were suspended in RPMI1640 medium (Wako Pure Chemical Industries, Ltd., supplemented with 25 mM HEPES and 10% FBS) at a concentration of 2×10^8 cells/mL and were mixed well. The cell suspension was further mixed with an equal amount of Matrigel basement membrane matrix (Corning Incorporated) to prepare a cell suspension at 1×10^8 cells/mL, and aliquots of 0.1 mL were subcutaneously transplanted into the right flank of each mouse. Seven days after transplantation, the longest diameter and the short axis of the tumors were measured by an electronic digital caliper (ABS Digimatic Caliper, Mitutoyo Corporation). The mice were divided into groups so that the average of tumor volumes of each group became approximately equal. In this regard, the tumor volume was calculated according to the following formula.
as §1, §2
On the technique in general: Xenograft models place foreign cells or tissue in a host animal.

The subject of assay [4] is unresectable biliary tract cancer. Briefly: Multicenter, unblinded, phase II clinical trial in patients with unresectable biliary tract cancer after combination chemotherapy involving gemcitabine (interim analysis). Format: in vivo, human. An excerpt:
This clinical trial was a multicenter, single-group, unblinded clinical trial for patients with a prior treatment history who had received one regimen using two-drug combination chemotherapy involving gemcitabine (two-drug combination chemotherapy using gemcitabine and cisplatin, or gemcitabine and another platinum-based drug or a fluorinated pyrimidine drug) for their unresectable biliary tract cancers.
This clinical trial was composed of three periods, which were a pretreatment period, an administration period, and a follow-up period. During the pretreatment period, screening was performed within 21 days. The administration period was composed of administration of mesylate of compound A as an investigational drug in each cycle and tumor assessment performed every 6 to 8 weeks. The follow-up period was started immediately after the day when administration was discontinued and was continued while the subject was alive until withdrawal of consent by the subject or completion of the clinical trial.
The investigational drug, mesylate of compound A, was administered orally once a day in a cycle of 28 days at a dose of 24 mg in terms of compound A in free form, and administration was continued until disease progression, an unacceptable adverse event, withdrawal of consent by the subject, or the like occurred.
The primary objective of the clinical trial was to determine an objective response rate (ORR) of the investigational drug for patients with an unresectable biliary tract cancer after combination chemotherapy involving gemcitabine.
The secondary objective of the clinical trial was to determine a progression-free survival (PFS), an overall survival (OS), a disease control rate (DCR), a clinical benefit rate (CBR), adverse events (AEs), and the number of subjects who developed serious adverse events (SAEs), and a blood concentration. In this context, ORR is defined as a rate of subjects with their best overall response (BOR) being complete response (CR) or partial response (PR). […]

On to `COc1cc2nccc(Oc3ccc(NC(=O)NC4CC4)c(Cl)c3)c2cc1C(N)=O` [compound A, 4-[3-chloro-4-(cyclopropylaminocarbonyl)aminophenoxy]-7-methoxy-6-quinolinecarboxamide], for which the “antitumor effect (tumor volume on Day 15 vs control)” value in assay [1], in assay [2] and in assay [3] was “dose-dependent antitumor effect” throughout. Besides, the “stable disease (SD, 6 weeks or more), percentage of patients” value in assay [4] (17 patients, mesylate of compound A orally once a day, 24 mg in terms of free form, 28-day cycles, 13 patients) worked out at 76.5%. Also, the “partial response (PR), percentage of patients” value in assay [4] (17 patients, mesylate of compound A orally once a day, 24 mg in terms of free form, 28-day cycles, one patient) is given as 5.9%. Also, the “tendency for tumor regression, number of patients” value in assay [4] (among 13 SD patients, 24 mg orally once a day) stood at 8 patients.
